Results on 18 compounds are retold here after patent US20230257372A1 (CHONG KUN DANG PHARMACEUTICAL CORP., priority 2020, published 2023).

One assay addresses T1, human recombinant HDAC1 (Homo sapiens, UniProt Q13547).
T1 construct: purchased Enzo Life Science, Inc. BML-SE456
The experiment in a line: HDAC1 enzyme activity inhibition (HDAC Fluorimetric Drug Discovery Kit). It counts as biochemical. The conditions noted are these: human recombinant HDAC1, Fluor de Lys substrate, 30° C. 60 minutes; read-out: HDAC1. The method, boiled down:
(§1)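 Each isoform is run in the same format: compound dilutions (5-fold steps), 10 μM substrate, […] enzyme, one hour at 30° C, then 30 minutes with developer before fluorescence readout.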

In another assay the target is T2, human recombinant HDAC6 (Homo sapiens, UniProt Q9UBN7).
T2 construct: purchased Calbiochem Inc. 382180
T2 sequence (Q9UBN7 1-1215): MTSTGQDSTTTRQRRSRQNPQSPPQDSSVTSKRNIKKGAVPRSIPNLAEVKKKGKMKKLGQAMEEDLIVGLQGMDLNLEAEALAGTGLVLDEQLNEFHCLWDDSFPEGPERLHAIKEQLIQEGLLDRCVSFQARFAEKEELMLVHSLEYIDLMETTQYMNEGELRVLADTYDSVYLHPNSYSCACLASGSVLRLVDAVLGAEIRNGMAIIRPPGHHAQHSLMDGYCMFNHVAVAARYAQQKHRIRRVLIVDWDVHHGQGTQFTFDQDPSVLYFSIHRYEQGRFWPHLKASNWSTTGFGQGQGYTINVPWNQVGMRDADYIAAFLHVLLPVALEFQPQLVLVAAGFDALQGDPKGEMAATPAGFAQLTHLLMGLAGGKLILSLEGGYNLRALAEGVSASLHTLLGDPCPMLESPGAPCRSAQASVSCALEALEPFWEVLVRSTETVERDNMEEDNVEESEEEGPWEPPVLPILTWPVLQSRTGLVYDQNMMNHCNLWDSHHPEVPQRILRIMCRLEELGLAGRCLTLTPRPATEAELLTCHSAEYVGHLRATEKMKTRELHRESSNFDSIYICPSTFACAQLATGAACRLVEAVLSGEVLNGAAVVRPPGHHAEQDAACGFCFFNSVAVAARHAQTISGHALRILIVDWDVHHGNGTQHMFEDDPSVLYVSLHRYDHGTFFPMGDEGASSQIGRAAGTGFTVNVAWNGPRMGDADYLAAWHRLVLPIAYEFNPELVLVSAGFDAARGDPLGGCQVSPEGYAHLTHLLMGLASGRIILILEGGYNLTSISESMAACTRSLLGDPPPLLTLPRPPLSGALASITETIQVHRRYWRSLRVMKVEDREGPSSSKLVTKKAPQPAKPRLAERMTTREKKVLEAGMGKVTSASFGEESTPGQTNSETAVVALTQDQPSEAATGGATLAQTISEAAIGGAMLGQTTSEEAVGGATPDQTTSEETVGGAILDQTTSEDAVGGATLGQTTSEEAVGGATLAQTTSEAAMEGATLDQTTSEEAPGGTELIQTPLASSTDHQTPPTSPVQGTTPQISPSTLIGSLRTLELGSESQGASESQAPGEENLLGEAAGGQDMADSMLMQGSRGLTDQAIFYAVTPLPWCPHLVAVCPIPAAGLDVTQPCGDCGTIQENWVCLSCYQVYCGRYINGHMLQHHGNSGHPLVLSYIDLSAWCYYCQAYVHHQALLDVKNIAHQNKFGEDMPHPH
The experiment in a line: HDAC6 enzyme activity inhibition (HDAC Fluorimetric Drug Discovery Kit). The assay is classed as biochemical. The settings on record: for HDAC6 selectivity (fold): HDAC6 over HDAC1; for IC50: human recombinant HDAC6, same protocol as HDAC1. In short, it runs like this: as §1

T1 sequence (Q13547 whole entry): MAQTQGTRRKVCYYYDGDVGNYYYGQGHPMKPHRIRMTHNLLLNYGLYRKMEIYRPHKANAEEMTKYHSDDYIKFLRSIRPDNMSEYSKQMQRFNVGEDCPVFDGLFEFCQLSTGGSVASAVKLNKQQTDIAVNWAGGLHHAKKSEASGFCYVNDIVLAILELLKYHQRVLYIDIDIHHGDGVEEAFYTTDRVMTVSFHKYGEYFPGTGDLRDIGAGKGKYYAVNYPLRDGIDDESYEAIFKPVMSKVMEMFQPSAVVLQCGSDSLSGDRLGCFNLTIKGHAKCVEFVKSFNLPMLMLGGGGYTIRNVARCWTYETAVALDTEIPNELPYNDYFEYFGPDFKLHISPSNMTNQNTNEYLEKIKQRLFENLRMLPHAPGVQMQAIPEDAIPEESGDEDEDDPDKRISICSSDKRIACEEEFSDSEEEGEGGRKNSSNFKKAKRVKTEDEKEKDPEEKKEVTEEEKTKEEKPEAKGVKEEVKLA

`Fc1cc(-c2nnc(C(F)F)o2)cnc1Cn1cc(-c2cncc(CN3CCC3)c2)nn1` [Compound 18882, 2-(6-((4-(5-(azetidin-1-ylmethyl)pyridin-3-yl)-1H-1,2,3-triazol-1-yl)methyl)-5-fluoropyridin-3-yl)-5-(difluoromethyl)-1,3,4-oxadiazole]: the IC50 on human recombinant HDAC1 was greater than 50000 nM. On human recombinant HDAC6, the “HDAC6 selectivity (fold)” value stood at 306 fold and the IC50 was 163 nM.
The corresponding values for `C[C@@H]1CN(c2cccc(-c3cn(Cc4ncc(-c5nnc(C(F)F)o5)cc4F)nn3)c2)C[C@H](C)N1` [Compound 18893, 2-(difluoromethyl)-5-(6-((4-(3-((3R,5S)-3,5-dimethylpiperazin-1-yl)phenyl)-1H-1,2,3-triazol-1-yl)methyl)-5-fluoropyridin-3-yl)-1,3,4-oxadiazole] are greater than 50000 nM, 388 fold and 129 nM.
The corresponding values for `Fc1cc(-c2nnc(C(F)F)o2)cnc1Cn1cc(-c2ccc3cc[nH]c3c2)nn1` [Compound 18918, 2-(6-((4-(1H-indol-6-yl)-1H-1,2,3-triazol-1-yl)methyl)-5-fluoropyridin-3-yl)-5-(difluoromethyl)-1,3,4-oxadiazole] are greater than 50000 nM, 1089 fold and 45.9 nM.
As to `Fc1cc(-c2nnc(C(F)F)o2)cnc1Cn1cc(-c2ccc3cn[nH]c3c2)nn1` [Compound 18919, 2-(6-((4-(1H-indazol-6-yl)-1H-1,2,3-triazol-1-yl)methyl)-5-fluoropyridin-3-yl)-5-(difluoromethyl)-1,3,4-oxadiazole], the IC50 on human recombinant HDAC1 is greater than 50000 nM. For the same compound, at human recombinant HDAC6, the “HDAC6 selectivity (fold)” value came out at 830 fold and the IC50 is 60.2 nM.
For `Fc1cc(-c2nnc(C(F)F)o2)cnc1Cn1cc(-c2ccc3[nH]ncc3c2)nn1` [Compound 18920, 2-(6-((4-(1H-indazol-5-yl)-1H-1,2,3-triazol-1-yl)methyl)-5-fluoropyridin-3-yl)-5-(difluoromethyl)-1,3,4-oxadiazole], in that order: greater than 50000 nM, 1190 fold and 42 nM.
The corresponding values for `Fc1cc(-c2nnc(C(F)F)o2)cnc1Cn1cc(-c2cccc3[nH]ccc23)nn1` [Compound 18921, 2-(6-((4-(1H-indol-4-yl)-1H-1,2,3-triazol-1-yl)methyl)-5-fluoropyridin-3-yl)-5-(difluoromethyl)-1,3,4-oxadiazole] are greater than 50000 nM, 1592 fold and 31.4 nM.
Consider `CN1CCN(c2cccc(-c3cn(Cc4ncc(-c5nnc(C(F)F)o5)cc4F)nn3)c2)CC1` [Compound 18924, 2-(difluoromethyl)-5-(5-fluoro-6-((4-(3-(4-methylpiperazin-1-yl)phenyl)-1H-1,2,3-triazol-1-yl)methyl)pyridin-3-yl)-1,3,4-oxadiazole], for which the IC50 at human recombinant HDAC1 was greater than 50000 nM. In addition, on human recombinant HDAC6, the “HDAC6 selectivity (fold)” value was 625 fold and the IC50 amounted to 80 nM.
For `CC(C)N1CCN(c2cccc(-c3cn(Cc4ncc(-c5nnc(C(F)F)o5)cc4F)nn3)c2)CC1` [Compound 18926], in that order: greater than 50000 nM, 782 fold and 63.9 nM.
As to `Fc1cc(-c2cn(Cc3ncc(-c4nnc(C(F)F)o4)cc3F)nn2)ccc1CN1CCC1` [Compound 18947, 2-(6-((4-(4-(azetidin-1-ylmethyl)-3-fluorophenyl)-1H-1,2,3-triazol-1-yl)methyl)-5-fluoropyridin-3-yl)-5-(difluoromethyl)-1,3,4-oxadiazole], the IC50 on human recombinant HDAC1 was greater than 50000 nM. In addition, at human recombinant HDAC6, the “HDAC6 selectivity (fold)” value was determined as 1262 fold and the IC50 worked out at 39.6 nM.
In the case of `Fc1cc(-c2cn(Cc3ncc(-c4nnc(C(F)F)o4)cc3F)nn2)ccc1CN1CCCC1` [Compound 18948, 2-(difluoromethyl)-5-(5-fluoro-6-((4-(3-fluoro-4-(pyrrolidin-1-ylmethyl)phenyl)-1H-1,2,3-triazol-1-yl)methyl)pyridin-3-yl)-1,3,4-oxadiazole], at human recombinant HDAC1, the IC50 is greater than 50000 nM. On human recombinant HDAC6, the “HDAC6 selectivity (fold)” value came to 856 fold and the IC50 stood at 58.4 nM.
`CN(C)Cc1ccc(-c2cn(Cc3ncc(-c4nnc(C(F)F)o4)cc3F)nn2)cc1F` [Compound 18949, 1-(4-(1-((5-(5-(difluoromethyl)-1,3,4-oxadiazol-2-yl)-3-fluoropyridin-2-yl)methyl)-1H-1,2,3-triazol-4-yl)-2-fluorophenyl)-N,N-dimethylmethanamine]: the IC50 on human recombinant HDAC1 was greater than 50000 nM. For the same compound, at human recombinant HDAC6, the “HDAC6 selectivity (fold)” value turned out to be 759 fold and the IC50 amounted to 65.8 nM.
Regarding `Fc1cc(-c2cn(Cc3ncc(-c4nnc(C(F)F)o4)cc3F)nn2)ccc1CN1CCCCC1` [Compound 18950, 2-(difluoromethyl)-5-(5-fluoro-6-((4-(3-fluoro-4-(piperidin-1-ylmethyl)phenyl)-1H-1,2,3-triazol-1-yl)methyl)pyridin-3-yl)-1,3,4-oxadiazole], the IC50 on human recombinant HDAC1 was greater than 50000 nM. For the same compound, on human recombinant HDAC6, the “HDAC6 selectivity (fold)” value was determined as 570 fold and the IC50 worked out at 87.6 nM.
As to `C[C@@H]1CN(c2cccc(-c3cn(Cc4ncc(-c5nnc(C(F)F)o5)cc4F)nn3)c2)C[C@H](C)N1C` [Compound 18961, 2-(difluoromethyl)-5-(5-fluoro-6-((4-(3-((3R,5S)-3,4,5-trimethylpiperazin-1-yl)phenyl)-1H-1,2,3-triazol-1-yl)methyl)pyridin-3-yl)-1,3,4-oxadiazole], the IC50 on human recombinant HDAC1 is greater than 50000 nM. Further, at human recombinant HDAC6, the “HDAC6 selectivity (fold)” value turned out to be 782 fold and the IC50 was determined as 63.9 nM.
The corresponding values for `CN1CCc2ccc(-c3cn(Cc4ncc(-c5nnc(C(F)F)o5)cc4F)nn3)cc2C1` [Compound 19002, 2-(difluoromethyl)-5-(5-fluoro-6-((4-(2-methyl-1,2,3,4-tetrahydroisoquinolin-7-yl)-1H-1,2,3-triazol-1-yl)methyl)pyridin-3-yl)-1,3,4-oxadiazole] are greater than 50000 nM, 587 fold and 85.1 nM.
The corresponding values for `Fc1cc(-c2nnc(C(F)F)o2)cnc1Cn1cc(-c2ccc3c(c2)CN(C2CCC2)CC3)nn1` [Compound 19004] are greater than 50000 nM, 640 fold and 78.1 nM.
For the compound `CN1CCC(c2ccc(-c3cn(Cc4ncc(-c5nnc(C(F)F)o5)cc4F)nn3)cc2)CC1` [Compound 19087, 2-(difluoromethyl)-5-(5-fluoro-6-((4-(4-(1-methylpiperidin-4-yl)phenyl)-1H-1,2,3-triazol-1-yl)methyl)pyridin-3-yl)-1,3,4-oxadiazole], the IC50 at human recombinant HDAC1 was greater than 50000 nM. For the same compound, on human recombinant HDAC6, the “HDAC6 selectivity (fold)” value was 650 fold and the IC50 is 76.9 nM.
The corresponding values for `CN(C)Cc1cccc(-c2cn(Cc3ncc(-c4nnc(C(F)F)o4)cc3F)nn2)c1Cl` [Compound 19088, 1-(2-chloro-3-(1-((5-(5-(difluoromethyl)-1,3,4-oxadiazol-2-yl)-3-fluoropyridin-2-yl)methyl)-1H-1,2,3-triazol-4-yl)phenyl)-N,N-dimethylmethanamine] are greater than 50000 nM, 639 fold and 78.2 nM.
For `Fc1cc(-c2nnc(C(F)F)o2)cnc1Cn1cc(-c2cccc(CN3CCCC3)c2Cl)nn1` [Compound 19089], in that order: greater than 50000 nM, 665 fold and 75.1 nM.
